Test results reported in US10770169B2, “Method of providing a treatment to a subject based on a dynamic pathway map” (THE REGENTS OF THE UNIVERSITY OF CALIFORNIA, priority 2010, dated 2020).

Tested on: panel of 55 breast cancer cell lines
Assay: Cell growth inhibition assay (Cell Titer Glo, 72 h, 9 doses; GI50, TGI, LC50)
Assay type: cell-based, human
Settings: value is the negative log10 of mol/L
[1] = BT20 cell line, censored GI50 values
[2] = BT483 cell line, censored GI50 values
[3] = HCC1187 cell line, censored GI50 values
[4] = HCC2185 cell line, censored GI50 values
[5] = SUM52PE cell line, censored GI50 values
[6] = SUM149PT cell line, censored GI50 values
[7] = SUM185PE cell line, censored GI50 values
[8] = ZR751 cell line, censored GI50 values

## CC(C)[C@H](CO)Nc1nc(Nc2cccc(Cl)c2)c2ncn(C(C)C)c2n1 [Purvalanol A]
600MPE cell line, censored GI50 values
  GI50: 4.52
AU565 cell line, censored GI50 values
  GI50: 5.01
[1]
  GI50: 4.56
[2]
  GI50: 4.40
HCC202 cell line, censored GI50 values
  GI50: 3.99
[3]
  GI50: 4.74
HCC1428 cell line, censored GI50 values
  GI50: 4.44
HCC1806 cell line, censored GI50 values
  GI50: 4.00
HCC1937 cell line, censored GI50 values
  GI50: 4.97
HCC1954 cell line, censored GI50 values
  GI50: 4.43
[4]
  GI50: 4.57
MCF7 cell line, censored GI50 values
  GI50: 4.80
MDAMB134VI cell line, censored GI50 values
  GI50: 4.26
MDAMB175VII cell line, censored GI50 values
  GI50: 4.46
MDAMB468 cell line, censored GI50 values
  GI50: 4.12
SKBR3 cell line, censored GI50 values
  GI50: 4.60
[5]
  GI50: 4.79
[6]
  GI50: 4.88
[7]
  GI50: 4.69
SUM225CWN cell line, censored GI50 values
  GI50: 4.28
SUM1315MO2 cell line, censored GI50 values
  GI50: 5.09
[8]
  GI50: 4.01
Cell line 600MPE
  GI50: 4.52
Cell line AU565
  GI50: 5.01
Cell line BT20
  GI50: 4.56
Cell line BT474
  GI50: 3.78
Cell line BT483
  GI50: 4.40
Cell line BT549
  GI50: 3.78
Cell line CAMA1
  GI50: 3.86
Cell line HCC70
  GI50: 3.78
Cell line HCC202
  GI50: 3.99
Cell line HCC1143
  GI50: 3.78
Cell line HCC1187
  GI50: 4.74
Cell line HCC1395
  GI50: 3.78
Cell line HCC1419
  GI50: 3.78
Cell line HCC1428
  GI50: 4.44
Cell line HCC1500
  GI50: 3.95
Cell line HCC1806
  GI50: 4.00
Cell line HCC1937
  GI50: 4.97
Cell line HCC1954
  GI50: 4.43
Cell line HCC2185
  GI50: 4.57
Cell line HCC3153
  GI50: 3.83
Cell line MCF7
  GI50: 4.80
Cell line MDAMB134V
  GI50: 4.26
Cell line MDAMB157
  GI50: 3.78
Cell line MDAMB175V
  GI50: 4.46
Cell line MDAMB231
  GI50: 3.78
Cell line MDAMB361
  GI50: 3.78
Cell line MDAMB436
  GI50: 3.78
Cell line MDAMB468
  GI50: 4.12
Cell line SKBR3
  GI50: 4.60
Cell line SUM52PE
  GI50: 4.79
Cell line SUM149PT
  GI50: 4.88
Cell line SUM159PT
  GI50: 3.78
Cell line SUM185PE
  GI50: 4.69
Cell line SUM225CWN
  GI50: 4.28
Cell line SUM1315MO
  GI50: 5.09
Cell line T47D
  GI50: 3.78
Cell line UACC893
  GI50: 3.78
Cell line ZR75B
  GI50: 3.78
Cell line ZR751
  GI50: 4.01

## O=S(=O)(CC1CS1)c1ccc(Oc2ccccc2)cc1 (centres unmarked) [SB-3CT]
[1]
  GI50: 4.42
BT474 cell line, censored GI50 values
  GI50: 4.99
[2]
  GI50: 4.59
HCC38 cell line, censored GI50 values
  GI50: 4.62
[3]
  GI50: 4.83
[4]
  GI50: 4.21
MDAMB361 cell line, censored GI50 values
  GI50: 4.00
MDAMB415 cell line, censored GI50 values
  GI50: 4.00
[5]
  GI50: 4.22
[6]
  GI50: 4.53
SUM159PT cell line, censored GI50 values
  GI50: 4.85
[7]
  GI50: 4.76
UACC812 cell line, censored GI50 values
  GI50: 4.28
ZR75B cell line, censored GI50 values
  GI50: 4.62
[8]
  GI50: 4.00
Cell line AU565
  GI50: 4.00
Cell line BT20
  GI50: 4.42
Cell line BT474
  GI50: 4.99
Cell line BT483
  GI50: 4.59
Cell line CAMA1
  GI50: 4.00
Cell line HCC38
  GI50: 4.62
Cell line HCC70
  GI50: 3.88
Cell line HCC1143
  GI50: 4.00
Cell line HCC1187
  GI50: 4.83
Cell line HCC1395
  GI50: 3.78
Cell line HCC1419
  GI50: 3.78
Cell line HCC1428
  GI50: 4.18
Cell line HCC1500
  GI50: 3.78
Cell line HCC1806
  GI50: 4.00
Cell line HCC1937
  GI50: 4.00
Cell line HCC1954
  GI50: 4.00
Cell line HCC2185
  GI50: 4.21
Cell line HCC3153
  GI50: 4.00
Cell line MCF7
  GI50: 4.00
